Results: patent US20080085889A1, “Amidomethyl-Substituted 1-(Carboxyalkyl) Cyclopentyl-Carbonylamino-Benzazepine-N-Acetic Acid Compounds, Process and Intermediate Products for Their Preparation and Pharmaceutical Compositions Containing Them” (SOLVAY PHARMACEUTICALS GmbH, priority 2003, published 2008)

Tests used:
[1] = molecular target: T1, His6-tagged hSEP ectodomain (Homo sapiens, UniProt Q495T6); assay: In vitro investigation of the hSEP-inhibitory action (fluorescence-quenched Big-ET-1 analogue, HPLC); assay type: biochemical
T1 construct: His6-tagged hSEP ectodomain; His6; purchased Innogenetics, Ghent, Belgium
T1 sequence (Q495T6 49-779 limits assumed): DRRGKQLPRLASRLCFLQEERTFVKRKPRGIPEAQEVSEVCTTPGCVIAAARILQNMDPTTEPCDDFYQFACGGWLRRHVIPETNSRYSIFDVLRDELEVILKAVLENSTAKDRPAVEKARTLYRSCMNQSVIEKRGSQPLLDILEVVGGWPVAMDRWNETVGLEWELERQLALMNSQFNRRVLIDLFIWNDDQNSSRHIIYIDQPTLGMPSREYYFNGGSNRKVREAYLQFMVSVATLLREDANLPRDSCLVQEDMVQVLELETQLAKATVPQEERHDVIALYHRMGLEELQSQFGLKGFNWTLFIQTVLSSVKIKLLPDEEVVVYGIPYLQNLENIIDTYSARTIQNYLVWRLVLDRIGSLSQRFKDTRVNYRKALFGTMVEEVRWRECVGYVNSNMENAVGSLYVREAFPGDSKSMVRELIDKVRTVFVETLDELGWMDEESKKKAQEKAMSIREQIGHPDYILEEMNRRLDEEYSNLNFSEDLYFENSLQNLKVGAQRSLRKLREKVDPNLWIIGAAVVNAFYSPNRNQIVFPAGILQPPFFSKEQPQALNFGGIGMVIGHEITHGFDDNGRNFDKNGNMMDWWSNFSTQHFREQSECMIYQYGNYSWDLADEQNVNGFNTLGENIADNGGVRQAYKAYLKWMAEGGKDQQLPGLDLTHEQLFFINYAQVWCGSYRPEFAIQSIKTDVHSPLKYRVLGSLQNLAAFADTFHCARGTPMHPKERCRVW
Method in brief: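 Performed as for the NEP assay, with HPLC analysis and 10 nM phosphoramidon as the standard inhibitor. IC50 is the compound concentration blocking 50% of hSEP enzymatic activity.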

[2] = tested on: maximal SAP response to Big-ET; assay: In vivo i.v. potency (ID50) to inhibit maximal SAP response to Big-ET in anesthetized rats; design: species or system Rats (Sprague-Dawley); settings: Rattus norvegicus, iv, dose at which the pressor effect of Big-ET was suppressed by 50%
Procedure: Rats (Sprague-Dawley, CRLD=Charles River) were anaesthetised with 1 ml/kg Rompun/Ketavet 1:1. A pressure transducer (Statham) was inserted into the carotid artery to measure blood pressure.
For intravenous testing, one jugular vein was cannulated for administering the substance, and the other for administering Big-ET-1. […] Five minutes later, 0.5 nmol/kg Big-ET-1 was infused over a period of one minute. SAP, DAP, and heart rate were measured before administration of the substance, then before administration of Big-ET, and subsequently every five minutes after Big-ET administration over a period of 30 minutes using the pressure transducer in known manner. The maximum Big-ET-induced increase in blood pressure was calculated from the measured values as the difference between the value measured at the moment of maximum development of the Big-ET action (typically after 5 min) and the value measured before Big-ET infusion. The dose at which the pressor effect of Big-ET was suppressed by 50% (ID50) was estimated from the inhibitory effects observed over the range of dosages tested (n>5 rats for each dose).
The intravenous potency of the test compounds of Formula I (given as ID50 values) to inhibit the maximal SAP response to Big ET in anesthetized rats is set forth in the following Table 3b: […]

With CC(C)NC(=O)CC(CC1(C(=O)N[C@H]2CCc3ccccc3N(CC(=O)O)C2=O)CCCC1)C(=O)O (stereo in doubt) [Example 3, (2″rel1″)-2-{[(3S)-1-({[1-(carboxymethyl)-2-oxo-2,3,4,5-tetrahydro-1H-1-benzazepin-3-yl]amino}-carbonyl)cyclopentyl]methyl}-4-(isopropylamino)-4-oxobutyric acid] the IC50 [1] was 7.8 nM.
CN(C)CCCN(C)C(=O)CC(CC1(C(=O)NC2CCc3ccccc3N(CC(=O)O)C2=O)CCCC1)C(=O)O (centres unmarked) [Example 64, 2-[(1-{[1-(carboxymethyl)-2-oxo-2,3,4,5-tetrahydro-1H-1-benzazepin-3-yl]carbamoyl}cyclopentyl)methyl]-4-{[3-(dimethylamino)propyl](methyl)amino}-4-oxobutanoic acid] showed an IC50 [1] of 5 nM and an ED50 [2] of 0.2 µmol/kg.
For CCN(CCCCN)C(=O)CC(CC1(C(=O)NC2CCc3ccccc3N(CC(=O)O)C2=O)CCCC1)C(=O)O [Example 81, (2″rel1″)-4-[(4-aminobutyl)(ethyl)amino]-2-{[1-({[(3S)-1-(carboxymethyl)-2-oxo-2,3,4,5-tetrahydro-1H-1-benzazepin-3-yl]amino}carbonyl)cyclopentyl]methyl}-4-oxobutanoic acid], the IC50 [1] was 2 nM and the ED50 [2] was 0.05 µmol/kg.
